According to US12698304B2, “Triterpene saponin variants, methods of synthesis and use thereof” (Memorial Sloan-Kettering Cancer Center, priority 2015, dated 2026):

Tested on: mice immunized with a four-antigen cocktail (MUC1-KLH, GD3-KLH, OVA)
Experiment: preclinical mouse vaccination model; antibody titers by ELISA
Assay type: in vivo
Settings: 5 μg and 20 μg dose of saponin variant (both doses); data not shown
Protocol: Panels a-c: anti-KLH (IgG) (Panel a), anti-OVA (IgG) (Panel b), and anti-MUC1 (IgG) (Panel c) antibody titers at 5 μg dose of each saponin variant. […] Median titer values represented as horizontal bars. Statistical significance compared to the no-adjuvant negative control assessed using unpaired Student's t-test with CI=95%: *p≤0.05, **p<0.01, ***p<0.001.
There is currently no in vitro method to measure adjuvant activity, due in part to the unknown and likely multivariate mechanisms of saponin adjuvant action. Thus, we proceeded directly to testing these QS variants in vivo in a mouse vaccination model. Cohorts of mice were immunized with the saponin variant of interest (5 or 20 μg) and a four-antigen cocktail comprising: (1) the immunogenic peptide MUC1 (prostate and breast cancer antigen, non-glycosylated tandem repeat) conjugated to a highly immunogenic carrier protein KLH (keyhole limpet hemocyanin; MUC1-KLH), (2) the poorly immunogenic ganglioside GD3 (melanoma, neuroblastoma, sarcoma antigen) conjugated to KLH (GD3-KLH), and (3) the immunogenic protein antigen ovalbumin (OVA). The antibody titers elicited against all […] antigens were evaluated by ELISA to compare the adjuvant activity of each QS analogue.

## C[C@H]1O[C@@H](OC2C(O)[C@@H](NC(=O)CCCCCCCCCCC(=O)O)C(CO)O[C@@H]2OC(=O)N[C@]23CCC(C)(C)CC2C2=CCC4C5(C)CC[C@H](O[C@@H]6OC(C(=O)O)[C@@H](O)[C@H](O[C@@H]7OC[C@@H](O)[C@H](O)C7O)C6O[C@@H]6OC(CO)[C@H](O)[C@H](O)C6O)[C@](C)(C=O)[C@@H]5CC[C@]4(C)[C@]2(C)CC3O)C(O)C(O)[C@H]1O[C@@H]1OC[C@@H](O)C(O)C1O (stereo partly drawn) [α-4]
  adjuvant activity (anti-KLH, anti-OVA, anti-MUC1 IgG antibody titers): inactive
